Laboratory results taken from PubChem BioAssay (NCI).
Values joined by “and” are separate entries in the source; they are usually repeats but may differ in a detail not shown here. Identical values can stand only once.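 Results reflect a 48-hour exposure of cells in 96-well plates to compound at five concentrations. GI50 is the concentration that inhibits growth by half. TGI marks complete inhibition of growth.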 Where a SMILES comes first, the peptide text is derived from it. [ ]: non-standard residue; d: D form. The star is where a group is joined. AllylGly = C=CC[CH](N)C(=O)O; Boc = CC(C)(C)OC(=O)*; OtBu = CC(C)(C)O*

Tests used:
Test in all cases: NCI tumour cell line growth inhibition, 48 h
K-562 leukemia = test system: K-562 leukemia
M14 melanoma = test system: M14 melanoma
MDA-N = test system: MDA-N
UACC-257 melanoma = test system: UACC-257 melanoma
A498 renal = test system: A498 renal
U251 CNS = test system: U251 CNS
HCT-116 colon = test system: HCT-116 colon
HT29 colon = test system: HT29 colon
SK-MEL-2 melanoma = test system: SK-MEL-2 melanoma
CCRF-CEM leukemia = test system: CCRF-CEM leukemia

Compound	TGI (K-562 leukemia)	TGI (M14 melanoma)	TGI (MDA-N)	TGI (UACC-257 melanoma)	TGI (A498 renal)	TGI (U251 CNS)	TGI (HCT-116 colon)	TGI (HT29 colon)	TGI (SK-MEL-2 melanoma)	TGI (CCRF-CEM leukemia)	GI50 (K-562 leukemia)	GI50 (SK-MEL-2 melanoma)	GI50 (CCRF-CEM leukemia)
COc1cc(-c2oc3c(OC)c(O)c(OC)c(O)c3c(=O)c2OC)cc(O)c1OC	> 100 µM	> 100 µM	36.2 µM	> 100 µM	75.4 µM	> 100 µM	> 100 µM	> 100 µM	> 100 µM	79.4 µM	–	–	–
O=C/C(=C(/Br)I)c1ccccc1	3.85 µM	4.01 µM	6.86 µM	17.8 µM	33.9 µM	13.7 µM	4.52 µM	5.29 µM	13.5 µM	0.798 µM	–	–	–
CC(C)(C)N(Cc1ccc2c(c1)OCO2)C(=O)/C=C\S(=O)c1ccccc1 (stereo not drawn)	> 100 µM	8.2 µM	12.7 µM	12.5 µM	21.4 µM	14.9 µM	7.84 µM	12.9 µM	9.11 µM	> 100 µM	–	–	–
N#CCCN(CCC#N)c1ccc(C(N=Nc2ccccc2)=Nc2ccccc2)cc1	> 100 µM	> 100 µM	> 100 µM	> 100 µM	> 100 µM	> 100 µM	> 100 µM	> 100 µM	> 100 µM	> 100 µM	–	–	–
CC1=C2C(=O)[C@H]3[C@@H](CC=C4C[C@@H](O)CC[C@@]43C)[C@@H]2CC[C@]12O[C@@H]1C[C@H](C)CN[C@H]1[C@H]2C	> 100 µM	> 60.4 µM	> 100 µM	> 71.5 µM	> 57.9 µM	> 55.5 µM	> 68.5 µM	> 100 µM	> 72.5 µM	> 100 µM	–	–	–
Cc1cn(C2CCC(/C=N\O)O2)c(=O)[nH]c1=O (stereo not drawn)	> 100 µM	> 100 µM	> 100 µM	> 100 µM	> 100 µM	> 100 µM	> 100 µM	> 100 µM	> 100 µM	> 100 µM	–	–	–
COc1ccc(N=C(C)c2ccncc2)cc1	> 100 µM	> 100 µM	> 100 µM	> 100 µM	> 100 µM	> 100 µM	> 100 µM	> 100 µM	> 100 µM	> 100 µM	–	–	–
COc1ccc2nc3cccc([N+](=O)[O-])c3c(NCCO)c2c1	0.0181 µM	0.0228 µM	0.0234 µM	0.0813 µM	0.117 µM	0.122 µM	0.00545 µM	0.125 µM	0.0368 µM	2.68 µM	–	–	–
CCCCCCOc1ccc(C(=O)NOCc2ccccc2)cc1	> 100 µM	> 100 µM	> 100 µM	> 100 µM	> 100 µM	> 100 µM	> 100 µM	> 100 µM	> 100 µM	> 100 µM	–	–	–
O=[N+]([O-])c1ccc(C2=NOC(c3ccccc3F)N2C23CC4CC(CC(C4)C2)C3)cc1 (stereo not drawn)	> 100 µM	> 100 µM	> 100 µM	> 100 µM	> 100 µM	> 100 µM	> 100 µM	> 100 µM	> 100 µM	> 100 µM	–	–	–
CCOc1ccc(/C(O)=C/c2nc3ccccc3nc2/C=C(\O)c2ccc(OCC)cc2)cc1	> 100 µM	> 100 µM	> 100 µM	> 100 µM	> 100 µM	> 100 µM	> 100 µM	> 100 µM	> 100 µM	> 100 µM	–	–	–
CC(C)NC(=O)CN1CCN(C2=CC(=O)c3c(O)ccc(O)c3C2=O)CC1	> 100 µM	22.3 µM	16.3 µM	19.8 µM	46 µM	35.9 µM	9.79 µM	12.3 µM	34.3 µM	> 95.2 µM	–	–	–
CCNC1(c2cccc(C)c2)OC(C)(C)c2cccc3cccc1c23 (stereo not drawn)	> 100 µM	38.1 µM	36.8 µM	37.9 µM	32.2 µM	31.4 µM	97.4 µM	27.8 µM	30.3 µM	26.4 µM	–	–	–
OC12COc3ccccc3C1Oc1ccccc1C2 (stereo not drawn)	> 100 µM	> 100 µM	> 100 µM	> 100 µM	> 100 µM	> 100 µM	> 100 µM	> 100 µM	> 100 µM	> 100 µM	–	–	–
O=c1cc(N2CCOCC2)[nH]c(=O)n1-c1cccc(C(F)(F)F)c1	> 100 µM	> 100 µM	> 100 µM	> 100 µM	> 100 µM	> 100 µM	> 100 µM	> 100 µM	> 100 µM	> 100 µM	–	–	–
COc1ccc(-c2csc(=Nc3ccccc3)n2CC(O)c2ccc([N+](=O)[O-])cc2)cc1 (stereo not drawn)	> 100 µM	> 100 µM	> 100 µM	> 100 µM	> 100 µM	> 100 µM	> 100 µM	> 100 µM	> 100 µM	> 100 µM	–	–	–
CN(C)CCNc1ccc2c(=O)n(CCN(C)C)c(=O)n3c4ccc([N+](=O)[O-])cc4c(=O)c1c23	1.94 µM	2.38 µM	1.38 µM	4.42 µM	5.55 µM	2.88 µM	1.24 µM	0.658 µM	1.31 µM	0.381 µM	–	–	–

Compound	TGI (K-562 leukemia)	TGI (M14 melanoma)	TGI (MDA-N)	TGI (UACC-257 melanoma)	TGI (A498 renal)	TGI (U251 CNS)	TGI (HCT-116 colon)	TGI (HT29 colon)	TGI (SK-MEL-2 melanoma)	TGI (CCRF-CEM leukemia)	GI50 (K-562 leukemia)	GI50 (SK-MEL-2 melanoma)	GI50 (CCRF-CEM leukemia)
Cc1[nH]c(=O)nc(N/N=C/c2ccc(Cl)cc2)c1C(=O)NC(C)(CO)CO	> 100 µM	> 100 µM	> 100 µM	> 100 µM	> 100 µM	> 100 µM	> 100 µM	> 100 µM	> 100 µM	> 100 µM	–	–	–
COc1ccc2nc3ccc(OC)cc3c(S(=O)(=O)Cc3ccc([N+](=O)[O-])cc3)c2c1	> 100 µM	> 100 µM	> 100 µM	> 100 µM	> 100 µM	> 100 µM	> 100 µM	> 100 µM	> 100 µM	> 100 µM	–	–	–
CC(=O)C(=[N+]=[N-])C(=O)OC(C)(C)C#N	> 10 µM	> 10 µM	> 10 µM	> 10 µM	> 10 µM	> 10 µM	> 10 µM	> 10 µM	> 10 µM	> 10 µM	–	–	–
CN(NC(=O)CCCl)C1=NCCN1	> 100 µM	> 100 µM	> 100 µM	> 100 µM	> 100 µM	> 100 µM	> 100 µM	> 100 µM	> 100 µM	> 100 µM	–	–	–
C[C@H](Nc1c(O)c2c(c(O)c1Cl)C(=O)C=CC2=O)C(=O)Nc1ccc([N+](=O)[O-])cc1	> 10 µM	2.53 µM	6.67 µM	3.41 µM	4.8 µM	6.02 µM	2.7 µM	8.57 µM	9.1 µM	> 10 µM	–	–	–
O=C1C(CN2CCCCC2)CCCC1CN1CCCCC1 (stereo not drawn)	15.8 µM and 25.5 µM	> 52.2 µM and 39.5 µM	29.7 µM	57.9 µM and 31.7 µM	> 100 µM	> 100 µM	27.6 µM and 29 µM	34.2 µM and 40.8 µM	> 100 µM and 48.4 µM	20.6 µM and > 22.6 µM	8.04 µM and 3.15 µM	> 83.2 µM and 31.9 µM	4.86 µM and 2.41 µM
CN1CN(c2ccccc2)C2(CCN(CCCSc3ccccc3NC(=O)/C=C/c3ccccc3)CC2)C1=O	15.6 µM	3.89 µM	6.33 µM	3.34 µM	6.98 µM	22.5 µM	8.76 µM	5.75 µM	6.12 µM	> 100 µM	–	–	–
CCc1n[nH]c(=O)n1/N=C/c1ccccc1Cl	> 100 µM	> 100 µM	> 100 µM	> 100 µM	> 100 µM	> 100 µM	> 100 µM	> 100 µM	> 100 µM	> 100 µM	–	–	–
S=C(N/N=C(/c1ccccc1)c1ccccn1)Nc1ccccc1Cl	> 5.82 µM	2.89 µM	13.6 µM	12.6 µM	7.19 µM	10.9 µM	3.44 µM	13.4 µM	1.8 µM	> 38.1 µM	–	–	–
C=CCC(NC(=O)C(CC(=O)OC(C)(C)C)NC(=O)OC(C)(C)C)C(=O)OC (stereo not drawn) (Boc-Asp(OtBu)-[AllylGly]-OMe; configuration not given here)	> 100 µM	43 µM	> 79.7 µM	58.1 µM	> 100 µM	> 63 µM	> 100 µM	> 100 µM	> 100 µM	> 100 µM	–	–	–
CC(C)(C)c1ccc(-c2nc3ccc([N+](=O)[O-])cc3c(=O)o2)cc1	71.3 µM	> 100 µM	> 100 µM	81.2 µM	73.9 µM	43.4 µM	81.2 µM	69.4 µM	47 µM	58.2 µM	–	–	–
C[C@]12CC[C@@H]3c4cc(OCC(F)(F)F)c(O)cc4C(=O)C[C@H]3[C@@H]1CC[C@@H]2O	> 100 µM	> 41.7 µM	5.69 µM	> 100 µM	> 100 µM	> 38.8 µM	> 100 µM	38.4 µM	> 26.1 µM	> 66.3 µM	–	–	–
O=P(Oc1ccccc1)(Oc1ccccc1)Oc1c[nH]c2ccccc12	36.5 µM	26.8 µM	24.3 µM	21.8 µM	29.1 µM	31.9 µM	38.8 µM	22 µM	20.2 µM	1.5 µM	–	–	–
CSc1nc(-c2cc3c(c(SC)n2)CCCCC3)cc2c1CCCCC2	> 100 µM	> 100 µM	> 100 µM	> 100 µM	> 100 µM	> 100 µM	> 100 µM	> 100 µM	> 100 µM	> 100 µM	–	–	–
CC1OC(OC2C(O[C@H]3CC[C@@]4(C)[C@@H](CC[C@@H]5[C@@H]4CC[C@]4(C)[C@@H]6[C@H](C[C@@H]54)O[C@]4(CC[C@@H](C)CO4)[C@H]6C)C3)OC(CO)C(OC3OC(CO)C(O)C(OC4OCC(O)C(O)C4O)C3OC3OCC(O)C(O)C3O)C2O)C(O)C(O)C1O (stereo partly drawn)	> 100 µM	0.963 µM	36.3 µM	2.34 µM	3.78 µM	1.79 µM	1.02 µM	1.71 µM	2.27 µM	0.499 µM	–	–	–
CCCCCNc1nonc1N	> 100 µM	> 100 µM	> 100 µM	> 100 µM	> 100 µM	> 100 µM	> 100 µM	> 100 µM	> 100 µM	> 31.6 µM	–	–	–
CC(C)C1(C)N=C(C(F)(F)F)c2cc(C(=O)C(F)(F)F)c3ccccc3c2N1 (stereo not drawn)	> 100 µM	18.2 µM	13 µM	19.5 µM	28.7 µM	11.1 µM	11.8 µM	13.5 µM	6.99 µM	> 100 µM	–	–	–
